PMC7463537, “Synthesis and Evaluation of Antimicrobial and Cytotoxic Activity of Oxathiine-Fused Quinone-Thioglucoside Conjugates of Substituted 1,4-Naphthoquinones” (Molecules, 2020)

Legend:
P. aeruginosa ATCC 27853 = assay: Agar diffusion method, P. aeruginosa; format: cell-based, Pseudomonas aeruginosa; conditions: for zone of inhibition at 100 µg/disc: ATCC27853, 100 µg/well
Description: (§1) Elyakov Pacific Institute of Bioorganic Chemistry, Far East Branch, Russian Academy of Sciences. Test substances were dissolved in DMSO at concentrations of 1.0, 0.1, and 0.01 mg/mL. All strains were grown on trypticase-soy agar TSA (BBL) at 37 °C. […] After incubation of the dishes at 37 °C for 24 h (for bacteria) and 48 h (for the fungus) at 28 °C, the diameters of the growth inhibition zones of pathogenic microorganisms (mm) were measured, including the diameter of the wells. Commercial antibacterial drugs (vancomicin and gentamicin) and antifungal (clotrimazol) drugs were used as positive controls.

E. coli K-12 = assay: Agar diffusion method, E. coli; format: cell-based, Escherichia coli
Description: as §1

B. cereus ATCC 10702 = assay: Agar diffusion method, B. cereus; format: cell-based, Bacillus cereus; conditions: for zone of inhibition at 100 µg/disc: ATCC10702, 24 h, 100 µg/well, 24 h, incl. 7 mm well
Description: as §1

S. aureus ATCC 21027 = assay: Agar diffusion method, S. aureus; format: cell-based, Staphylococcus aureus; set-up: key to Diameter of Zone Inhibition, S. aureus: Zones within 20–40 mm mean strong antibiotic activity; zones up to 20 mm—moderate; ≤10 mm—weak; +—insignificant; conditions: for zone of inhibition at 100 µg/disc: ATCC21027, 24 h
Description: as §1

[1] = Cytotoxicity, MTT assay, Jb6 Cl 41-5a normal epithelial cells; conditions: mouse, Jb6 Cl 41-5a normal epithelial cells
C. albicans KMM 453 = assay: Agar diffusion method, C. albicans; format: cell-based; conditions: Candida albicans, read-out: Diameter of Zone Inhibition, C. albicans; for zone of inhibition at 100 µg/disc: KMM453, 48 h, 100 µg/well, 48 h at 28 °C
Description: as §1

[2] = system: human cervical cancer (HeLa); assay: Cytotoxicity, MTT assay, HeLa cells; conditions: for EC50: Homo sapiens, HeLa, 24 h, read-out: Cytotoxicity (EC50), HeLa; for Selectivity Index (SI), HeLa: SI = EC50 (Jb6 Cl 41-5a normal cells)/EC50 (tumor cells)
[3] = system: mouse ascites Ehrlich carcinoma; assay: Cytotoxicity, nonspecific esterase (FDA) assay, ascites Ehrlich carcinoma cells; conditions: for EC50: Mus musculus, Ehrlich, 24 h, read-out: Cytotoxicity (EC50), Ascites Ehrlich Carcinoma; for Selectivity Index (SI), Ascitic Ehrlich Carcinoma: SI = EC50 (Jb6 Cl 41-5a normal cells)/EC50 (tumor cells)
[4] = system: mouse neuroblastoma (Neuro 2a); assay: Cytotoxicity, MTT assay, Neuro 2a cells; conditions: for EC50: N2a, 24 h, read-out: Cytotoxicity (EC50), Neuro 2a; for Selectivity Index (SI), Neuro-2a: SI = EC50 (Jb6 Cl 41-5a normal cells)/EC50 (tumor cells)
[5] = Pseudomonas aeruginosa, read-out: Diameter of Zone Inhibition, P. aeruginosa
[6] = Escherichia coli, K12, 100 µg/well, read-out: Diameter of Zone Inhibition, E. coli
[7] = Bacillus cereus, read-out: Diameter of Zone Inhibition, B. cereus
[8] = Staphylococcus aureus, 100 µg/well, 24 h, incl. 7 mm well, read-out: Diameter of Zone Inhibition, S. aureus

Structure (SMILES) | melting point | EC50 at 24 h [1] | zone of inhibition at 100 µg/disc (P. aeruginosa ATCC 27853; [5]) | zone of inhibition at 100 µg/disc (E. coli K-12; [6]) | zone of inhibition at 100 µg/disc (B. cereus ATCC 10702; [7]) | zone of inhibition at 100 µg/disc (S. aureus ATCC 21027; [8]) | zone of inhibition at 100 µg/disc (C. albicans KMM 453) | EC50 [2] | Selectivity Index (SI), HeLa [2] | EC50 [3] | Selectivity Index (SI), Ascitic Ehrlich Carcinoma [3] | EC50 [4] | Selectivity Index (SI), Neuro-2a [4] | other results
CNC(C)C1CCC(N)C(OC2C(N)CC(N)C(OC3OCC(C)(O)C(NC)C3O)C2O)O1 (stereo not shown) [Gentamicin (disk), reference compound] | – | – | – | – | – | – | – | – | – | – | – | – | – | zone of inhibition at 10 µg/disc (P. aeruginosa ATCC 27853; Pseudomonas aeruginosa, ATCC27853, 10 µg (disk), read-out: Diameter of Zone Inhibition, P. aeruginosa): 18 ± 2 mm; zone of inhibition at 10 µg/disc (E. coli K-12; Escherichia coli, K12, 10 µg (disk), read-out: Diameter of Zone Inhibition, E. coli): 22 ± 3 mm; zone of inhibition at 10 µg/disc (B. cereus ATCC 10702; Bacillus cereus, ATCC10702, 10 µg/well (gentamicin: disk), read-out: Diameter of Zone Inhibition, B. cereus): 25 ± 1 mm; zone of inhibition at 10 µg/disc (S. aureus ATCC 21027; Staphylococcus aureus, ATCC21027, 10 µg/well (gentamicin: disk), read-out: Diameter of Zone Inhibition, S. aureus): 25 ± 2 mm
Clc1ccccc1C(c1ccccc1)(c1ccccc1)n1ccnc1 [Clotrimazol (disk), reference compound] | – | – | – | – | – | – | – | – | – | – | – | – | – | zone of inhibition at 10 µg/disc (C. albicans KMM 453; KMM453, 10 µg (disk)): 15 ± 2 mm
COc1ccc(OC)c2c1C(=O)C1=C(S[C@@H]3OC[C@@H](O)[C@H](O)[C@H]3O1)C2=O [Compound 17c, (3R,4S,4aR,12aS)-3,4-Dihydroxy-7,10-dimethoxy-3,4,4a,12a-tetrahydro-2H-naphtho[2,3-b]pyrano[2,3-e][2,5]oxathiine-6,11-dione] | 329 to 332 °C | > 25 µM | 0 mm | 0 mm | 0 mm | 0 mm | 0 mm | > 25 µM | – | > 25 µM | – | > 25 µM | – | –
COc1ccc(OC)c2c1C(=O)C1=C(S[C@@H]3O[C@H](CO)[C@@H](O)[C@H](O)[C@H]3O1)C2=O [Compound 17a, (2R,3S,4S,4aR,12aS)-3,4-Dihydroxy-2-hydroxymethyl-7,10-dimethoxy-3,4,4a,12a-tetrahydro-2H-naphtho[2,3-b]pyrano[2,3-e][2,5]oxathiine-6,11-dione] | 332 to 335 °C | > 25 µM | 0 mm | 0 mm | 0 mm | 0 mm | 0 mm | > 25 µM | – | > 25 µM | – | > 25 µM | – | –
CN[C@H](CC(C)C)C(=O)N[C@H]1C(=O)N[C@@H](CC(N)=O)C(=O)N[C@H]2C(=O)N[C@H]3C(=O)N[C@H](C(=O)N[C@H](C(=O)O)c4cc(O)cc(O)c4-c4cc3ccc4O)[C@H](O)c3ccc(c(Cl)c3)Oc3cc2cc(c3O[C@@H]2O[C@H](CO)[C@@H](O)[C@H](O)[C@H]2O[C@H]2C[C@](C)(N)[C@H](O)[C@H](C)O2)Oc2ccc(cc2Cl)[C@H]1O [Vancomicin (disk), reference compound] | – | – | – | – | – | – | – | – | – | – | – | – | – | Diameter of Zone Inhibition, P. aeruginosa (P. aeruginosa ATCC 27853; 30 µg (disk)): 0 mm; Diameter of Zone Inhibition, E. coli (E. coli K-12; 30 µg (disk)): 0 mm; Diameter of Zone Inhibition, B. cereus (B. cereus ATCC 10702; 30 µg (disk)): 20 ± 3 mm; Diameter of Zone Inhibition, S. aureus (S. aureus ATCC 21027; 30 µg (disk)): 20 ± 2 mm
COc1ccc(OC)c2c1C(=O)C1=C(S[C@@H]3OC[C@H](O)[C@H](O)[C@H]3O1)C2=O [Compound 17d, (3S,4S,4aR,12aS)-3,4-Dihydroxy-7,10-dimethoxy-3,4,4a,12a-tetrahydro-2H-naphtho[2,3-b]pyrano[2,3-e][2,5]oxathiine-6,11-dione] | 317 to 320 °C | > 25 µM | 0 mm | 0 mm | 0 mm | 0 mm | ≤ 10 mm | > 25 µM | – | > 25 µM | – | > 25 µM | – | –

Further lines, with some results ahead:

melting point | Structure (SMILES) | EC50 at 24 h [1] | zone of inhibition at 100 µg/disc (P. aeruginosa ATCC 27853; [5]) | zone of inhibition at 100 µg/disc (E. coli K-12; [6]) | zone of inhibition at 100 µg/disc (B. cereus ATCC 10702; [7]) | zone of inhibition at 100 µg/disc (S. aureus ATCC 21027; [8]) | zone of inhibition at 100 µg/disc (C. albicans KMM 453) | EC50 [2] | Selectivity Index (SI), HeLa [2] | EC50 [3] | Selectivity Index (SI), Ascitic Ehrlich Carcinoma [3] | EC50 [4] | Selectivity Index (SI), Neuro-2a [4] | other results
276 to 279 °C | COc1c(Cl)c(Cl)c(OC)c2c1C(=O)C1=C(S[C@@H]3O[C@H](CO)[C@H](O)[C@H](O)[C@H]3O1)C2=O [Compound 18b, (2R,3R,4S,4aR,12aS)-8,9-Dichloro-3,4-dihydroxy-2-(hydroxymethyl)-7,10-dimethoxy-3,4,4a,12a-tetrahydro-2H-naphtho[2,3-b]pyrano[2,3-e][2,5]oxathiine-6,11-dione] | 2.9 µM | 0 mm | 0 mm | 0 mm | 0 mm | 0 mm | 8 µM | 0.4 | 1.1 µM | 2.6 | 2.9 µM | 1 | –
348 to 350 °C (dec.) | O=C1C2=C(S[C@@H]3OC[C@@H](O)[C@H](O)[C@H]3O2)C(=O)c2c(O)cccc21 [Compound 19c, (3R,4S,4aR,12aS)-3,4,10-Trihydroxy-3,4,4a,12a-tetrahydro-2H-naphtho[2,3-b]pyrano[2,3-e][2,5]oxathiine-6,11-dione] | 5.9 µM | 0 mm | 0 mm | 10 ± 2 mm | 8 ± 1 mm | 0 mm | 4.9 µM | 1.2 | 7.4 µM | 0.8 | 13.3 µM | 0.4 | –
286 to 289 °C | COc1c(Cl)c(Cl)c(OC)c2c1C(=O)C1=C(S[C@@H]3OC[C@H](O)[C@H](O)[C@H]3O1)C2=O [Compound 18d, (3S,4S,4aR,12aS)-8,9-Dichloro-3,4-dihydroxy-7,10-dimethoxy-3,4,4a,12a-tetrahydro-2H-naphtho[2,3-b]pyrano[2,3-e][2,5]oxathiine-6,11-dione] | 4.3 µM | 0 mm | 0 mm | < 20 mm | < 20 mm | 0 mm | 8.7 µM | 0.5 | 4.1 µM | 1 | 2.8 µM | 1.5 | Diameter of Zone Inhibition, E. coli (E. coli K-12; 100 µg/well): not active
222 to 224 °C | COc1c(Cl)c(Cl)c(OC)c2c1C(=O)C1=C(S[C@@H]3O[C@H](CO)[C@@H](O)[C@H](O)[C@H]3O1)C2=O [Compound 18a, (2R,3S,4S,4aR,12aS)-8,9-Dichloro-3,4-dihydroxy-2-hydroxymethyl-7,10-dimethoxy-3,4,4a,12a-tetrahydro-2H-naphtho[2,3-b]pyrano[2,3-e][2,5]oxathiine-6,11-dione] | 1.5 µM | 0 mm | 0 mm | 0 mm | – | 0 mm | 10.9 µM | 0.1 | 8.8 µM | 0.2 | 2.4 µM | 0.6 | Diameter of Zone Inhibition, S. aureus (S. aureus ATCC 21027; 100 µg/well, 24 h, incl. 7 mm well): +
277 to 279 °C | COc1c(Cl)c(Cl)c(OC)c2c1C(=O)C1=C(S[C@@H]3OC[C@@H](O)[C@H](O)[C@H]3O1)C2=O [Compound 18c, (3R,4S,4aR,12aS)-8,9-Dichloro-3,4-dihydroxy-7,10-dimethoxy-3,4,4a,12a-tetrahydro-2H-naphtho[2,3-b]pyrano[2,3-e][2,5]oxathiine-6,11-dione] | 3.8 µM | 0 mm | 0 mm | < 20 mm | < 20 mm | 0 mm | 10.1 µM | 0.4 | 4.5 µM | 0.8 | 4.1 µM | 0.9 | Diameter of Zone Inhibition, E. coli (E. coli K-12; 100 µg/well): not active
